Reference: patent US20240197716A1, “TREATMENTS FOR CUSHING'S SYNDROME THAT DO NOT SIGNIFICANTLY AFFECT CARDIAC RHYTHMS” (Corcept Therapeutics Incorporated, priority 2022, published 2024)
Where two headings read alike, the source gives them in different places.

How the values were obtained:
[1] = Effect of food on relacorilant Cmax; format: in vivo
[2] = system: healthy volunteers; test: First-in-Human SAD/MAD study (NCT03508635), ECG / QTcF; format: in vivo; details: for placebo-corrected predicted change in QTc at Cmax: doses of 50, 150, 250 and 500 mg
Protocol: A phase 1, 3-part, single-center, First-in-Human study (NCT03508635) included 103 healthy volunteers who received single or multiple ascending doses (SAD/MAD) of relacorilant (up to 500 mg QD) for up to 14 days; 24 received placebo.
In all studies, ECG data were collected and the heart rate-corrected QT interval using Fridericia's formula (QTcF) was calculated. Participants with a family history of or risk factors for torsades de pointes or with a prolonged QT interval at screening were not eligible to participate. Exposure-response analysis of the effect of relacorilant on the heart-rate corrected QT interval (QTc) was conducted using a linear model with an intercept.
In a 3-part, single-center, First-in-Human study (NCT03508635, “phase 1 study”), 103 healthy volunteers received single or multiple ascending doses of relacorilant (up to 500 mg QD) for up to 14 days; 24 received placebo. In a randomized, partial double-blind, crossover Thorough QT study (NCT04795479, “TQT study”), the effect of multiple therapeutic (400 mg QD, n=25) and supra-therapeutic (800 mg QD, n=28) doses of relacorilant on cardiac repolarization was studied in healthy volunteers. A single dose of moxifloxacin (400 mg, n=28) was used as a positive control; 29 participants received placebo. In a single-arm, open-label phase 2 study (NCT02804750, “CS study”), 17 patients with CS received low-dose relacorilant (100-200 mg QD) for 12 weeks and 18 patients received high-dose relacorilant (250-400 mg QD) for 16 weeks. In all studies, ECG data were collected, and the heart rate-corrected QT interval using Fridericia's formula (QTcF) was assessed.
ECG data were available from 42 and 12 participants randomized to relacorilant or placebo, respectively, during the single ascending dose (SAD) phase, and from 34 and 12 participants randomized to relacorilant or placebo, respectively, during the multiple ascending dose (MAD) phase. Baseline mean (SD) QTcF values were within expectations for a healthy population (range […] (11.7) msec to 403.5 (9.4) msec) and were similar in the respective relacorilant and placebo cohorts during the SAD and MAD study phases (see Table 1) (where the value in parentheses indicates standard deviation).

[3] = system: Cushing's syndrome patients; test: Separate study: relacorilant with another drug known to cause QT prolongation; format: in vivo, human; details: at least 12 patients also receiving fluoroquinoline, imidazole derivative, macrolide or protease inhibitor drug
[4] = Plasma concentrations in TQT study (LC-MS/MS, non-compartmental PK); format: in vivo, human; details: for Cmax: human, plasma, oral, Day 5, read-out: Geometric Mean Cmax
Protocol: PK analyses were performed using non-compartmental methods to obtain estimates of the following parameters, where possible: […] Day 1: Cmax, Tmax, AUClast, and AUC0-24; Day 5: Cmax, Tmax, Cmin, AUClast, AUC0-tau, Cavg, FI, and AR. For moxifloxacin: Cmax, Tmax, AUClast, and AUC0-24. […] PK blood sampling for Day 1 was completed prior to dosing on Day 2.

[5] = MAD, concentration-QTc linear model, FIG. 2B
[6] = SAD, concentration-QTc linear model, FIG. 2A

## Cn1cc(S(=O)(=O)N2CCC3=Cc4c(cnn4-c4ccc(F)cc4)C[C@]3(C(=O)c3cc(C(F)(F)F)ccn3)C2)cn1 [relacorilant, ((R)-(1-(4-fluorophenyl)-6-((1-methyl-1H-pyrazol-4-yl)sulfonyl)-4,4a,5,6,7,8-hexahydro-1H-pyrazolo[3,4-g]isoquinolin-4a-yl)(4-(trifluoromethyl)pyridine-2-yl)methanone)]
[1]; high-fat breakfast
  increase of Cmax relative to fasting conditions: approximately 34%
[1]; moderate-fat breakfast
  increase of Cmax relative to fasting conditions: ~41%
[2]; [5]
  MAD equation ΔΔQTcF intercept: -1.804 ms
  MAD equation ΔΔQTcF slope versus relacorilant concentration: -0.00234 ms/ng/mL
[2]; MAD, FIG. 2B
  placebo-corrected predicted change in QTc at Cmax: less than 10 ms
[2]; SAD and MAD study phases, all doses
  mean ΔΔQTcF at any time point: ≤ 5 ms
[2]; [6]
  SAD equation ΔΔQTcF intercept: -0.005 ms
  SAD equation ΔΔQTcF slope versus relacorilant concentration: -0.000588 ms/ng/mL
[2]; SAD, FIG. 2A
  placebo-corrected predicted change in QTc at Cmax: less than 5 ms
[2]; any of the dosing groups
  Mean placebo-corrected ΔQTcF (ΔΔQTcF) at any time point: ≤ 3 ms
[2]; modeled SAD and MAD results, plasma concentrations up to approximately 4000 ng/ml
  prolonging effect on ΔΔQTcF exceeding the 10-msec threshold: excluded
[2]; up to 500 mg QD
  instances of post-dose QTcF interval>450 ms or QTcF interval increase of >30 ms: No instances
[2]; up to 500 mg daily
  effect on ECG parameters: did not have a clinically relevant adverse effect on ECG parameters
[3]
  QT prolongation: no clinically significant QT prolongation
[4]; 400 mg QD
  Cmax: 1830 ng/mL
[4]; 800 mg QD
  Cmax: 2710 ng/mL
[4]; supra-therapeutic dosing (800 mg)
  observed range of plasma concentrations, upper end: ~4500 ng/mL
